{"source": "ChEMBL document CHEMBL4382198", "about": "“Discovery of Risdiplam, a Selective Survival of Motor Neuron-2 ( SMN2) Gene Splicing Modifier for the Treatment of Spinal Muscular Atrophy (SMA)” (J Med Chem, 2018)", "key": {"[1]": {"experiment": "Stabilization of human MADD mRNA splicing expressed in human SMA-derived fibroblasts at 121 to 605 nM by RT-qPCR analysis", "type": "ADME", "conditions": "0.605 µM"}, "Mus musculus [2]": {"system": "Mus musculus", "experiment": "In-vivo stabilization of SMN2 mRNA in SMA neonatal delta7 mouse model assessed as increase in SMN protein levels in quadriceps at 10 mg/kg, ip dosed once daily starting from postnatal day 3 to postnatal day 9 relative to control", "type": "functional"}, "[3]": {"experiment": "Stabilization of human APLP2 mRNA splicing expressed in human SMA-derived fibroblasts at 121 to 605 nM by RT-qPCR analysis", "type": "ADME", "conditions": "0.605 µM"}, "Homo sapiens": {"species": "Homo sapiens", "experiment": "Modulation of human SMN2 mRNAsplicing expressed in HEK293H cells by qRT-PCR analysis", "type": "cell-based"}, "Mus musculus [4]": {"system": "Mus musculus", "experiment": "In-vivo stabilization SMN2 mRNA in SMA delta7 mouse assessed as increase in mean survival day at 0.1 mg/kg, ip dosed daily starting from postnatal day 3 to postnatal day 23 followed by po dosing 0.3 mg/kg per day via gavage (reference value: 10.5 days)", "type": "functional"}, "Mus musculus [5]": {"system": "Mus musculus", "experiment": "In-vivo stabilization of SMN2 mRNA in SMA adult C/C allele mouse model assessed as increase in SMN protein levels in quadriceps at 10 mg/kg, po dosed once daily for 10 days relative to control", "type": "functional"}, "Mus musculus [6]": {"system": "Mus musculus", "experiment": "In-vivo stabilization of SMN2 mRNA in SMA adult C/C allele mouse model assessed as increase in SMN protein levels in quadriceps at 3 mg/kg, po dosed once daily for 10 days relative to control", "type": "functional"}, "[7]": {"experiment": "Oral bioavailability in cynomolgus monkey at 0.5 mg/kg administered as single dose", "type": "ADME, organism-based, Macaca fascicularis", "conditions": "in vivo"}, "[8]": {"experiment": "Chronic toxicity in retina of po dosed cynomolgus monkey assessed as RPE hypertrophy 39 weeks by histological analysis", "type": "organism-based, Macaca fascicularis", "conditions": "in vivo, 6552 h"}, "Mus musculus [9]": {"system": "Mus musculus", "experiment": "In-vivo stabilization of SMN2 mRNA in SMA neonatal delta7 mouse model assessed as increase in SMN protein levels in brain at 1 mg/kg, ip dosed once daily starting from postnatal day 3 to postnatal day 9 relative to control", "type": "functional"}, "Mus musculus [10]": {"system": "Mus musculus", "experiment": "In-vivo stabilization of SMN2 mRNA in SMA adult C/C allele mouse model assessed as increase in SMN protein levels in brain at 3 mg/kg, po dosed once daily for 10 days relative to control", "type": "functional"}, "[11]": {"experiment": "Effect on FOXM1b/c mRNA splicing in human induced pluripotent stem cells by RT-qPCR analysis", "type": "ADME", "conditions": "Homo sapiens"}, "Mus musculus [12]": {"system": "Mus musculus", "experiment": "In-vivo stabilization SMN2 mRNA in SMA delta7 mouse assessed as increase in mean survival day at 0.1 to 3 mg/kg, ip dosed daily starting from postnatal day 3 to postnatal day 23 followed by po dosing 0.3 to 10 mg/kg per day via gavage", "type": "functional, organism-based"}, "Mus musculus [13]": {"system": "Mus musculus", "experiment": "In-vivo stabilization SMN2 mRNA in SMA delta7 ip dosed mouse assessed as increase in number of motor neurons dosed daily starting from postnatal day 3 to postnatal day 14 by immunohistochemistry", "type": "functional, organism-based"}, "[14]": {"experiment": "Lipophilicity, log D of the compound at pH 7.4", "type": "physicochemical", "conditions": "buffer"}}, "note": "Calls of active or inactive are those of the source. The calls are words filed in the database; no cut-off is given here."}
{"smiles": "Cc1cn2nc(-c3cc(=O)n4cc(N5CCNC6(CC6)C5)ccc4n3)cc(C)c2n1", "values": [{"measurement": "Activity", "setting": "[1]", "result": "Non-Toxic"}, {"measurement": "Activity", "setting": "Mus musculus [2]", "result": 241, "unit": "%"}, {"measurement": "Activity", "setting": "[3]", "result": "Non-Toxic"}, {"measurement": "EC1.5", "setting": "Homo sapiens", "result": 4, "unit": "nM"}, {"measurement": "MSD", "setting": "Mus musculus [4]", "result": 26, "unit": "days"}, {"measurement": "Activity", "setting": "Mus musculus [5]", "result": 49, "unit": "%"}, {"measurement": "Activity", "setting": "Mus musculus [6]", "result": 0, "unit": "%"}, {"measurement": "bioavailability", "setting": "[7]", "result": 43, "unit": "%"}, {"measurement": "Activity", "setting": "[8]", "result": "Toxic"}, {"measurement": "Activity", "setting": "Mus musculus [9]", "result": 206, "unit": "%"}, {"measurement": "Activity", "setting": "Mus musculus [10]", "result": 17, "unit": "%"}, {"measurement": "IC50", "setting": "[11]", "result": 113, "unit": "nM"}, {"measurement": "Activity", "setting": "Mus musculus [12]", "result": "Active"}, {"measurement": "Activity", "setting": "Mus musculus [13]", "result": "Dose-dependent effect"}, {"measurement": "logD", "setting": "[14]", "result": 2.5}]}
